Experimental data taken from ChEMBL document CHEMBL1152167, “Synthesis and cytotoxic activities of 1-benzylidine substituted beta-carboline derivatives” (Bioorg Med Chem Lett, 2008).

Columns and labels:
Format in all cases: functional, cell-based
[1] = test system: HepG2; assay: Cytotoxicity against human HepG2 cells by MTT assay
[2] = test system: HeLa; assay: Cytotoxicity against human HeLa cells by MTT assay
[3] = test system: BGC-823; assay: Cytotoxicity against human BGC823 cells by MTT assay
[4] = test system: Bel-7402; assay: Cytotoxicity against human Bel7402 cells by MTT assay
[5] = Cytotoxicity against human 786-O cells by MTT assay; details: 786-0
[6] = test system: KB; assay: Cytotoxicity against human KB cells by MTT assay
[7] = test system: A-375; assay: Cytotoxicity against human A375 cells by MTT assay
[8] = test system: A549; assay: Cytotoxicity against human A549 cells by MTT assay
[9] = test system: HT-29; assay: Cytotoxicity against human HT-29 cells by MTT assay
[10] = test system: 769-P; assay: Cytotoxicity against human 769-P cells by MTT assay

| SMILES | IC50 [1] [µM] | IC50 [2] [µM] | IC50 [3] [µM] | IC50 [4] [µM] | IC50 [5] [µM] | IC50 [6] [µM] | IC50 [7] [µM] | IC50 [8] [µM] | IC50 [9] [µM] | IC50 [10] [µM] |
| --- | --- | --- | --- | --- | --- | --- | --- | --- | --- | --- |
| Cc1nccc2c3ccccc3n(CCCc3ccccc3)c12 | 449 | > 1000 | 987 | 449 | – | – | – | – | – | – |
| COc1cc(/C=C/c2nccc3c2[nH]c2ccccc23)cc(OC)c1OC | 32.2 | 50.5 | 66.2 | 34.6 | 14.4 | 24.6 | 23.9 | 12.8 | 27.8 | 5.7 |
| CC(=O)n1c2ccccc2c2ccnc(/C=C/c3ccc([N+](=O)[O-])cc3)c21 | 197 | > 200 | > 200 | > 200 | > 200 | > 200 | > 200 | > 200 | > 200 | > 200 |
| COc1ccc(/C=C/c2c3c(cc[n+]2Cc2ccccc2)c2ccccc2n3CCCc2ccccc2)cc1 | 2.1 | 4.5 | 0.46 | 2.9 | 3.2 | 0.93 | 0.68 | 3.9 | 4.3 | 4.6 |
| COc1ccc(/C=C/c2nccc3c2[nH]c2ccccc23)cc1 | 60.5 | 142 | 167 | 118 | 12.9 | 29.5 | 42.2 | 47.1 | 21.3 | 25.6 |
| CC(=O)n1c2ccccc2c2cc[n+](Cc3ccccc3)c(/C=C/c3ccc([N+](=O)[O-])cc3)c21 | 5.2 | 14.4 | 14.8 | 17.9 | 28.6 | 15.4 | 25.3 | 7.6 | 10.5 | 19.8 |
| C(=C\c1nccc2c1[nH]c1ccccc12)/c1ccccc1 | 171 | 139 | > 200 | 190 | 37.5 | > 200 | 71.4 | 36.7 | 62.9 | 7.8 |
| Cc1nccc2c1[nH]c1ccccc12 [HARMAN] | 115 | 186 | 215 | 151 | – | – | – | – | – | – |
| COc1ccc(/C=C/c2c3[nH]c4ccccc4c3cc[n+]2Cc2ccccc2)cc1 | 9.6 | 32.1 | 22.9 | 22.5 | 10 | 17.9 | 28.2 | 10.8 | 9.4 | 4.9 |
| O=[N+]([O-])c1ccc(/C=C/c2nccc3c4ccccc4n(CCCc4ccccc4)c23)cc1 | > 200 | > 200 | > 200 | > 200 | > 200 | > 200 | > 200 | > 200 | > 200 | > 200 |
| CCCCOc1ccc2c3cc[n+](Cc4ccccc4)c(/C=C/c4ccc(OC)cc4)c3n(CCCc3ccccc3)c2c1 | 8.9 | 6.8 | 7.1 | 1.6 | 4.6 | 2.7 | 7.3 | 3.4 | 3.2 | 8.2 |
| COc1ccc(/C=C/c2nccc3c4ccccc4n(CCCc4ccccc4)c23)cc1 | 186 | > 200 | > 200 | > 200 | 92.3 | 58.9 | > 200 | 127 | > 200 | 123 |
| CCCCn1c2ccccc2c2cc[n+](Cc3ccccc3)c(/C=C/c3ccc(OC)cc3)c21 | 6.7 | 6.7 | 21.8 | 7.7 | 11.2 | 3.9 | 8.4 | 9.1 | 7.8 | 5.1 |
| CCCCOc1ccc2c3ccnc(/C=C/c4ccc(OC)cc4)c3n(CCCc3ccccc3)c2c1 | 92.9 | 92.3 | > 200 | > 200 | 89.1 | 150 | 64.3 | 78.6 | 54.3 | 62.9 |
| CCCCn1c2ccccc2c2ccnc(/C=C/c3ccc(OC)cc3)c21 | 66 | 88.8 | 141 | 29.7 | 67.4 | 30.1 | 59.5 | 38.1 | > 200 | 25.2 |
| CCCCn1c2ccccc2c2ccnc(C)c21 | 145 | 102 | 264 | 145 | – | – | – | – | – | – |
| CCCCOc1ccc2c3cc[n+](Cc4ccccc4)c(/C=C/c4ccc([N+](=O)[O-])cc4)c3n(CCCc3ccccc3)c2c1 | 1.3 | 2.9 | 4.1 | 1.5 | 2.7 | 2.4 | 4.5 | 2.8 | 2.5 | 3.1 |
| CCCCOc1ccc2c3ccnc(/C=C/c4ccc([N+](=O)[O-])cc4)c3n(CCCc3ccccc3)c2c1 | > 200 | > 200 | > 200 | > 200 | > 200 | > 200 | > 200 | > 200 | > 200 | > 200 |
